Patent US20260315653A1, “ANTICOAGULANT COMPOSITIONS COMPRISING ANTI-PLATELET AND ANTI-INFLAMMATORY DRUGS AND METHODS AND DEVICES FOR THEIR USE” (Elixir Medical Corporation, priority 2023, published 2026)
Where two headings read alike, the source gives them in different places.

What was measured:
[1] = tested on: blood clotting (citrated sheep blood); experiment: Activated clotting time (ACT) of EDTA or other anti-coagulant compounds in citrated sheep blood (Example 13)
Experimental: The activated clotting time (ACT) evaluation of anticoagulants was performed in Calcium-reconstituted sheep blood and recorded employing the Hemochron® Response device.
(§1) The ACT measurements were made in citrated sheep blood. 1.9 ml of citrated sheep blood was added to a test tube containing an activator (Hemochron@Celite@ ACT tubes, Lot F8FTE026 from Accriva Diagnostics, Inc.). A target amount of EDTA or other anti-coagulant compounds solution was then added into the test tube. The test tube was gently swirled so that the blood and EDTA or other anti-coagulant compounds was well-mixed. 0.1 ml of 0.3M calcium chloride was then added. The tube was gently shaken before being inserted into the Hemochron Response detector. The ACT read out was recorded and reported. The ACT of the control blood in the absence of any EDTA or other anti-coagulant compounds as first determined to establish a baseline. Then ACT was determined in the presence of different concentrations of EDTA or analogues as a single component.

[2] = tested on: blood clotting (citrated sheep blood); experiment: Net activated clotting time (net ACT) in citrated sheep blood (Examples 3-5); parameters: key: seconds; measured ACT minus blood control ACT (165 s); conditions: single drug, blood control 165 seconds
Experimental: The activated clotting time (ACT) evaluation of anticoagulants was performed in calcium citrate sheep blood and recorded employing the Hemochron® Response device. The ACT measurements were made in citrated sheep blood. 1.9 ml of citrated sheep blood was added to a test tube containing an activator (Hemochron@Celite@ ACT tubes, Lot F8FTE026 from Accriva Diagnostics, Inc.). A target amount of drug solution was then added into the test tube. The test tube was gently swirled so that the blood and drug were well-mixed. 0.1 ml of 0.3M calcium chloride was then added. The tube was gently shaken before being inserted into the Hemochron Response detector. The ACT read out was recorded and reported. The ACT of the control blood in the absence of any drug as first determined to establish a baseline. Here the blood control measured is 165 seconds. Then ACT was determined in the presence of different concentrations of the drug as a single component. In the following study, the net ACT (measured ACT minus blood control ACT) was utilized to visualize the synergistic effect of direct factor Xa inhibitor (Rivaroxaban) and direct factor IIa inhibitor (Argatroban) drug combinations. The figures are presented in ng/mg wherein the density of blood and tissue are approximately the same.
Example 4 is the continuation of example 3, which employed the same method as in example 3. The only difference is that the direct factor Xa inhibitor Edoxaban is used in place of direct factor Xa inhibitor Rivaroxaban.
Example 5 is the continuation of example 3, which employed the same method as in example 3. The only difference is that the direct factor Xa inhibitor Betrixaban is used in place of direct factor Xa inhibitor Rivaroxaban.

[3] = tested on: blood clotting (heparinized sheep blood); experiment: Net ACT initiated by platelet activation factor (PAF) and CaCl2 in heparinized sheep blood (Examples 6-11)
Experimental: In order to examine the potential synergistic effects between anti-inflammatory agents, direct factor Xa inhibitors, direct factor IIa inhibitors, antiplatelets (P2Y12 inhibitor and glycoprotein IIb/IIIa inhibitor, platelet activation factor and CaCl2 were utilized by measuring ACT. Heparinized sheep blood was used to preserve platelet function.
The activated clotting time (ACT) evaluation initiated by platelet activation factor (PAF) and calcium chloride (CaCl2) was performed in heparinized sheep blood and recorded employing the Hemochron® Response device. […] A target amount of drug solution was then added into the test tube. The test tube was gently swirled so that the blood and drug were well-mixed. […] The tube was gently shaken before being inserted into the Hemochron Response detector. The ACT read out was recorded and reported. The ACT of the control heparinized sheep blood in the absence of any drug as first measured to establish a baseline. […] Then ACT was measured in the presence of different concentrations of the drug measured. Selected drug combinations were then tested to evaluate for potential synergy in action between the drug combination. The net ACT (ACT minus blood control ACT) was utilized to visualize the synergistic effect. […] The figures are presented in ng/mg wherein the density of blood and tissue are approximately the same.

[4] = tested on: blood clotting (fresh pig blood); experiment: Activated clotting time (ACT) of EDTA or analogues in fresh pig blood (Example 12); conditions: for Increase in clotting time compared to control: control 154 sec; for blood coagulation compared to the blood control: EDTA 200 ng/mg, sodium salts 300 ng/mg
Experimental: The activated clotting time (ACT) evaluation of EDTA or analogues was performed in fresh pig blood and recorded employing the Hemochron® Response device.
as §1, with “fresh pig” for “citrated sheep”, “1.0” for “1.9”, “drug” for “EDTA or other anti-coagulant compounds”

[5] = pH of 1 mg/ml EDTA or analogue in water or phosphate buffer; format: physicochemical; conditions: 1 mg/ml in 0.01 M pH 7.4 phosphate buffer, 21.8-22.3 ° C.
[6] = as above; format: physicochemical
Description: Based on the pH of EDTA or analogues in water and in 0.1M phosphate buffered saline as show in Table 2, EDTA disodium salt or dipotassium salt has a pH close to neutral pH in human body (6.42-6.92), whereas EDTA tetrasodium or trisodium has a very basic pH (>8.0) in human body. EDTA disodium or dipotassium is preferred in the examples.

porcine coronary artery = experiment: In vivo porcine coronary stent implantation: fibrin score and late lumen loss (Examples 25-26); conditions: Table 9, day 7
Experimental: The drug eluting stent systems containing different anticoagulants prepared as described in Example 11 were evaluated at 3 hours, 6 hours, 1 day, 3 days, 6 days, 7 days, or 28 days following implantation in a porcine coronary artery model.
The porcine model was chosen as this model has been used extensively for stent and angioplasty studies resulting in a large volume of data on the vascular response properties and its correlation to human vascular response (Schwartz et al, Circulation. 2002; 106:1867 1873). The animals were housed and cared for in accordance with the Guide for the Care and Use of Laboratory Animals as established by the National Research Council.
After induction of anesthesia, the left or right femoral artery was accessed using standard techniques and an arterial sheath was introduced and advanced into the artery. Vessel angiography was performed under fluoroscopic guidance, a 7 Fr. guide catheter was inserted through the sheath and advanced to the appropriate location where intracoronary nitroglycerin was administered. An appropriate implantation segment of coronary artery was randomly selected and a 0.014″ guidewire inserted. Quantitative Coronary Angiography (QCA) was performed to document the results. The appropriately size stent was advanced to the deployment site. The balloon was inflated at a steady rate to a pressure sufficient to achieve a balloon to artery ratio of approximately 1.1 to 1.0.
Follow up angiography was performed at the designated timepoint for each of the animals. Late lumen loss (LLL) can be expressed as: […]
The LLL is an indicator of the amount smooth muscle cell (SMC) proliferation or inhibition. It is used to measure efficacy between drugs for SMC proliferation inhibition. The smaller the LLL, the better the efficacy of the drug.
Stented portions of coronary arteries were embedded in methyl methacrylate (MMA), then divided into a target of at least three blocks of approximately similar lengths for histology evaluation. Quantitative histopathological evaluation of stented artery sections was then performed and scored as indicated. For Fibrin formation, scores ranged from 0 to 3, with a score of 0 indicating absent or rare minimal spotting around struts of the stent, a score of 1 indicating the presence of fibrin in small amounts localized only around the struts, a score of 2 indicating the moderately abundant or denser presence of fibrin around and extending beyond the struts, and a score of 3 indicating the presence of abundant and dense fibrin and/or bridging of the fibrin between the struts. The mean score was calculated and reported. The mean of each section was then averaged to provide a mean fibrin score per stent. The smaller the fibrin score, the better efficacy.

[7] = 167 ng/mg, blood control 202 sec
[8] = 1 mg/ml in d-water, 21.8-22.0 ° C.
[9] = single drug, 0.05 ng/mg, PAF & CaCl2, blood control 235 seconds

Compound: CCCCCCCCCCCCCC[N+](C)(C)Cc1ccccc1.[Cl-] [Benzyldimethyltetradecyl-ammonium chloride]
- Clotting time (ACT) ([1]; 67 ng/mg): 316 s
- Increase in clotting time compared to control ([1]; 67 ng/mg): 114 s
- Clotting time (ACT) ([1]; 100 ng/mg): 421 s
- Increase in clotting time compared to control ([1]; 100 ng/mg): 219 s
- Clotting time (ACT) ([1]; 133 ng/mg): 983 s
- Increase in clotting time compared to control ([1]; 133 ng/mg): 781 s
- Clotting time (ACT) [1, 7]: 1370 s
- Increase in clotting time compared to control [1, 7]: 1168 s

Compound: COc1ccc(NC(=O)c2ccc(C(=N)N(C)C)cc2)c(C(=O)Nc2ccc(Cl)cn2)c1 [Betrixaban]
- net ACT ([2]; 0.3 ng/mg): 21

Compound: COc1cc2c(c(OC)c1OC)-c1ccc(OC)c(=O)cc1[C@@H](NC(C)=O)CC2 [Colchicine]
- net ACT [3]: 41 s

Compound: O=C(O)C(S)C(S)C(=O)O (stereo not drawn) [Dimercaptosuccinic acid (DMSA), Dimercaptosuccinic acid]
- Clotting time (ACT) ([4]; 200 ng/mg): 151 s
- Increase in clotting time compared to control ([4]; 200 ng/mg): -3 s

Compound: O=C(O)CN(CCN(CC(=O)O)CC(=O)O)CC(=O)O [EDTA dipotassium]
- pH [5]: 6.93
- pH [6, 8]: 6.25
- pH ([6]; in water and phosphate buffered saline, listed as dipotassium salt): 6.42-6.92

Compound: CC(=O)OCOC(=O)CN(CCN(CC(=O)OCOC(C)=O)CC(=O)OCOC(C)=O)CC(=O)OCOC(C)=O [EDTA tetra acetoxymethyl ester]
- Clotting time (ACT) ([4]; 500 ng/mg): 158 s
- Increase in clotting time compared to control ([4]; 500 ng/mg): 4 s

Compound: O=C(O)CN(CCN(CC(=O)O)CC(=O)O)CC(=O)O [EDTA tri sodium]
- pH [5]: 7.77
- pH [6, 8]: 9.21
- pH ([6]; in water and phosphate buffered saline): > 8.0

Compound: O=C(O)CN(CCN(CC(=O)O)CC(=O)O)CC(=O)O [EDTA, ethylenediaminetetraacetic acid]
- Clotting time (ACT) ([4]; 75 ng/mg): 179 s
- Increase in clotting time compared to control ([4]; 75 ng/mg): 25 s
- Clotting time (ACT) ([4]; 100 ng/mg): 247 s
- Increase in clotting time compared to control ([4]; 100 ng/mg): 93 s
- Clotting time (ACT) ([4]; 150 ng/mg): 275 s
- Increase in clotting time compared to control ([4]; 150 ng/mg): 121 s
- Clotting time (ACT) ([4]; 200 ng/mg): >500 s
- Increase in clotting time compared to control ([4]; 200 ng/mg): >346 s
- blood coagulation compared to the blood control [4]: significant delayed blood coagulation

Compound: O=C(O)CN(CCN(CC(=O)O)CC(=O)O)CC(=O)O [EDTA•2Na•2H2O]
- pH ([5]; listed as EDTA disodium): 6.92
- pH ([6]; 1 mg/ml in d-water, 21.8-22.0 ° C., listed as EDTA disodium): 6.42
- pH ([6]; in water and phosphate buffered saline, listed as EDTA disodium salt): 6.42-6.92
- Clotting time (ACT) ([4]; 100 ng/mg): 191 s
- Increase in clotting time compared to control ([4]; 100 ng/mg): 37 s
- Clotting time (ACT) ([4]; 200 ng/mg): 264 s
- Increase in clotting time compared to control ([4]; 200 ng/mg): 110 s
- Clotting time (ACT) ([4]; 300 ng/mg): 374 s
- Increase in clotting time compared to control ([4]; 300 ng/mg): 220 s
- blood coagulation compared to the blood control ([4]; listed as EDTA disodium salt): The same trend

Compound: CN1CCc2nc(C(=O)N[C@@H]3C[C@@H](C(=O)N(C)C)CC[C@@H]3NC(=O)C(=O)Nc3ccc(Cl)cn3)sc2C1 [Edoxaban]
- net ACT ([2]; 0.15 ng/mg): 42
- net ACT ([2]; 0.3 ng/mg): 87

Compound: CCCSc1nc(N[C@@H]2C[C@H]2c2ccc(F)c(F)c2)c2nnn([C@@H]3C[C@H](OCCO)[C@@H](O)[C@H]3O)c2n1 [Ticagrelor]
- net ACT [3, 9]: 18 s

Compound: CCCCS(=O)(=O)N[C@@H](Cc1ccc(OCCCCC2CCNCC2)cc1)C(=O)O [Tirofiban]
- net ACT [3, 9]: 9 s

Compound: Dalteparin
- LLL / smooth muscle cell proliferation compared to bare metal control stents (porcine coronary artery): larger LLLs compared to control
- inhibition of fibrin formation compared to bare metal control stents (porcine coronary artery): not effective at inhibiting fibrin formation
